ChEMBL document CHEMBL1149317, “Synthesis and in vitro antifolate activity of rotationally restricted aminopterin and methotrexate analogues” (J Med Chem, 2004)

Assays:
Dihydrofolate reductase = molecular target: T1, Dihydrofolate reductase (Homo sapiens, UniProt P00374); assay: Inhibition of human DHFR
T1 sequence (P00374 whole entry): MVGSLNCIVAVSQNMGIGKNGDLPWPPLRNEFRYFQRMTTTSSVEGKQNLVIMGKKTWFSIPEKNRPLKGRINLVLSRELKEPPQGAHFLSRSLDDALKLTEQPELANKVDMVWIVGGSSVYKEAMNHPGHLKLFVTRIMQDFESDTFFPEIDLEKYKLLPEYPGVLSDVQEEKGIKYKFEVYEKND

CCRF-CEM = assay: Growth inhibition of human CCRF-CEM cells after 72 hrs; assay type: functional, cell-based
[1] = molecular target: T2, Reduced folate transporter (Homo sapiens, UniProt P41440); assay: Inhibition of RFC-mediated [3H]MTX influx into human CCRF-CEM cells; assay type: cell-based
T2 sequence (P41440 whole entry): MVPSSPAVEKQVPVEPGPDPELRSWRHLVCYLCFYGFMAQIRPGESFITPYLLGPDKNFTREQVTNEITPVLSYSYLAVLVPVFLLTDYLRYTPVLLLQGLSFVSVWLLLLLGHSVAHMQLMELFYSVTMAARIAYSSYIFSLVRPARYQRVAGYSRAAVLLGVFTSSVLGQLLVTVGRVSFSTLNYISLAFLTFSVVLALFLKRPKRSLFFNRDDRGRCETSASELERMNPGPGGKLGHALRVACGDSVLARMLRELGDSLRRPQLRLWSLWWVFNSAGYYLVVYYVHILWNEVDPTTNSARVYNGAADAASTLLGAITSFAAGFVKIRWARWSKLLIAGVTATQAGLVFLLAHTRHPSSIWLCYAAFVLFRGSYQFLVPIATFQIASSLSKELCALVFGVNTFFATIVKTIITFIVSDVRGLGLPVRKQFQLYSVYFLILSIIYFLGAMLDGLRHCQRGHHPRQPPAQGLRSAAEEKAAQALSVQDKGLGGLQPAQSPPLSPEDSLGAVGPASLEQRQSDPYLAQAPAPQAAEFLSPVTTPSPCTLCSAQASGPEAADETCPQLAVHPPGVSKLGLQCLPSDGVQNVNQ

| Ki (Dihydrofolate reductase) | IC50 (CCRF-CEM) | Ki [1] | Compound |
| --- | --- | --- | --- |
| 0.077 nM | 8.4 nM | 530 nM | Nc1nc(N)c2nc(CNc3ccc4c(c3)CN(C(CCC(=O)O)C(=O)O)C4=O)cnc2n1 (racemic) |
| 0.034 nM | 5.1 nM | 280 nM | Nc1nc(N)c2nc(CNc3ccc4c(c3)CN([C@@H](CCC(=O)O)C(=O)O)C4=O)cnc2n1 |
| 2.1 nM | 140 nM | 1100 nM | CN(Cc1cnc2nc(N)nc(N)c2n1)c1ccc2c(c1)CN([C@@H](CCC(=O)O)C(=O)O)C2=O |
